From patent publication US6821994B2, “Carboxylic acid derivative and a pharmaceutical composition containing the derivative as active ingredient” (Ono Pharmaceutical Co., Ltd., priority 1998, dated 2004) come the findings set out here.

Structures are written as SMILES.

The target of assay [1] is T1, human PPARα (Homo sapiens, UniProt Q07869).
T1 construct: expressed in transfected cells; host or cells: CV-1 cells
T1 sequence (Q07869 167-468): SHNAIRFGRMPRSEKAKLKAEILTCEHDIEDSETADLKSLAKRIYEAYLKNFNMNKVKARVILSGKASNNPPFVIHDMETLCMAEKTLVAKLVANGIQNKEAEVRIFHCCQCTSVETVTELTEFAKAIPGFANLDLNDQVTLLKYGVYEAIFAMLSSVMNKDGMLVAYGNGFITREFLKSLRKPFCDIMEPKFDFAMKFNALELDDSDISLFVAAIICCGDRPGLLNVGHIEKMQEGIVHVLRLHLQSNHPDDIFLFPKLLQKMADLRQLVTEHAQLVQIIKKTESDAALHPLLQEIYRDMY
Nature of the assay: Luciferase assay using human PPARα (Gal4-PPARα ligand binding domain chimeric receptor, CV-1 host cells). As to conditions: PPARα agonistic activity; compound 10 μM; luciferase activity of carbacyclin (10 μM) defined as 1.0; CV-1 cells. It counts as cell-based.

The target in assay [2] is T2, human PPARγ (Homo sapiens, UniProt P37231).
T2 construct: expressed in transfected cells; host or cells: CV-1 cells
T2 sequence (P37231 204-505): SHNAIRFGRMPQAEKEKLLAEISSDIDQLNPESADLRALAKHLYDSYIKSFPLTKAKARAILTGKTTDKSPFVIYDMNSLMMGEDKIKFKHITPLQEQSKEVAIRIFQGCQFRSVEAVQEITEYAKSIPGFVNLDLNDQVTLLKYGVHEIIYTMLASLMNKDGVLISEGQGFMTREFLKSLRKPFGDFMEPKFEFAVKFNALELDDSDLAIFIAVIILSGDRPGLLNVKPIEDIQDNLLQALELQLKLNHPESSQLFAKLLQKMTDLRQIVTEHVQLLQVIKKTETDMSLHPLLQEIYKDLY
Briefly: Luciferase assay using human PPARγ (Gal4-PPARγ ligand binding domain chimeric receptor, CV-1 host cells). It counts as cell-based. The settings on record: PPARγ agonistic activity; compound 10 μM; luciferase activity of troglitazone (10 μM) defined as 1.0; CV-1 cells.

Assay [3] deals with KKAy/Ta mice. Nature of the assay: Hypoglycemic and hypolipidemic effects in KKAy/Ta mice. As to conditions: male KKAy/Ta mice, food mixture containing 0.03% (w/w) compound (43-47 mg/kg/day conversion value), 4 days; for TG level: control 439 ± 234; for blood sugar level: control 520 ± 147. In kind it is in vivo. The text has this:
Male, 7-weeks old KKAy/Ta mice weighed from 35 to 40 g (five mice per group) were pre-breaded for approximately one week and acclimatized for three days on milled diet. On the first day of the experiment (Day 0), mice were divided into some groups according to weight, plasma glucose and triglyceride (TG) levels to minimize the differences among groups. […] At 13:00 of the third day, blood samples were collected to measure glucose and TG levels. Additionally, there was no significant difference in the food intake between control group (milled diet only) and compounds-treated group (milled diet containing 0.03% compounds).

The subject of assay [4] is SD rats. Briefly: Hypocholesterolemic and hypolipidemic effects in SD rats given hypercholesterolemic food. In kind it is in vivo. The settings on record: male SD rats, orally in 0.5% CMC, then hypercholesterolemic food, blood at 9:00 of the next day; for IG level: control 163 ± 18; for IC level: control 167 ± 13; for NEFA level: control 615 ± 80. The text has this:
Male, six-weeks old SD rats (five rats per group) were left to take milled diet and water ad libitum and were acclimatized for 1 week.
At 9:00 on the first day of the experiment (Day 0), blood sampling was done from tail vein. The rats were divided into some groups according to body weight, triglyceride (TG), non-esterified fatty acid (NEFA) and total cholesterol (TC) levels to minimize differences of the parameters among the groups. At 17:00 of the day, the compound of the present invention dissolved in 0.5% aqueous solution of carboxymethylcellulose (CMC) was orally administered, and thereafter, with hypercholesterolemic food (5.5% peanut oil, 1.5% cholesterol and 0.5% cholic acid were mixed with milled CRF-1 diet, Charles River Inc.) was given to the rats.
At 9:00 of the next day, blood sampling was done from tail vein. The lipid levels in blood (TG, NEFA and TC levels) after administration of the compounds of the present invention were measured. There was no significant difference of the food intake between the control group (provided only 0.5% CMC) and the group treated with the compounds of the present invention.

Regarding `Cc1oc(-c2ccccc2)nc1Cc1ccc(/C=C/CSCC(=O)O)o1` [Example 3, 2-((2E)-3-(5-(5-methyl-2-phenyloxazol-4-ylmethyl)furan-2-yl)-2-propenylthio)acetic acid], the “Relative Activity to a positive control compound (carbacyclin = 1)” value (from here on “Relative Activity … (carbacyclin = 1)”) in assay [1] came out at 2.6. In assay [2], the “Relative Activity to a positive control compound (troglitazone = 1)” value (from here on “Relative Activity … (troglitazone = 1)”) was determined as 2.3. In assay [3], the TG level worked out at 43 ± 12 mg/dL and the blood sugar level was 260 ± 37 mg/dL. In assay [4], this molecule displayed an IG level of 73 ± 7 mg/dL, an IC level of 87 ± 5 mg/dL and an NEFA level of 207 ± 25 µEq/l.

Consider `CCc1ccc(-c2nc(Cc3ccc(/C=C/CSCC(=O)O)o3)c(C)o2)cc1` [Example 3(3), 2-((2E)-3-(5-(5-methyl-2-(4-ethylphenyl)oxazol-4-ylmethyl)furan-2-yl)-2-propenylthio)acetic acid], for which, in assay [1], the “Relative Activity … (carbacyclin = 1)” value is 1.8. For the same molecule, the “Relative Activity … (troglitazone = 1)” value in assay [2] was determined as 2.2. In addition, in assay [3], the TG level was 31 ± 15 mg/dL and the blood sugar level was determined as 234 ± 31 mg/dL. In assay [4], this molecule showed an IG level of 79 ± 12 mg/dL, an IC level of 91 ± 4 mg/dL and an NEFA level of 213 ± 31 µEq/l.

In the case of `Cc1oc(-c2ccc3c(c2)OCO3)nc1Cc1ccc(/C=C/CSCC(=O)O)o1` [Example 3(2), 2-((2E) -3-(5-(5-methyl-2-(1,3-dioxaindan-5-yl)oxazol-4-ylmethyl)furan-2-yl)-2-propenylthio)acetic acid], the “Relative Activity … (carbacyclin = 1)” value in assay [1] stood at 3.1. In assay [2], the “Relative Activity … (troglitazone = 1)” value amounted to 2.3. In addition, in assay [3], the TG level came to 45 ± 12 mg/dL and the blood sugar level worked out at 243 ± 37 mg/dL. In assay [4], the IG level is 62 ± 7 mg/dL, the IC level came to 86 ± 6 mg/dL and the NEFA level was found to be 145 ± 18 µEq/l.

`Cc1ccc(-c2nc(Cc3ccc(/C=C/CSCC(=O)O)o3)c(C)o2)cc1` [Example 3(1), 2-((2E)-3-(5-(5-methyl-2-(4-methylphenyl)oxazol-4-ylmethyl)furan-2-yl)-2-propenylthio)acetic acid]: the “Relative Activity … (carbacyclin = 1)” value in assay [1] was determined as 1.5. The “Relative Activity … (troglitazone = 1)” value in assay [2] was 1.1. Further, in assay [3], the TG level is 44 ± 11 mg/dL and the blood sugar level came to 253 ± 27 mg/dL. In addition, in assay [4], the IG level was determined as 92 ± 26 mg/dL, the IC level was 107 ± 4 mg/dL and the NEFA level is 394 ± 49 µEq/l.
